Data: patent US20260116920A1, “HUMAN TRANSFERRIN RECEPTOR BINDING PEPTIDE” (PEPTIDREAM INC., priority 2021, published 2026)
Like-named read-outs stand apart in the source and are kept apart here. Starred links: 1 amine or outer side, 2 acyl side, 3 side chain; linkers in the order of their positions; H or OH if unused. Positions of bridges follow the written chain, without caps; N, C: chain ends. Non-standard residues stand in square brackets, D forms with d. Residues, ends and D or L forms follow the SMILES beside them. Groups on a side chain read outwards from the residue. *: point of attachment. Trp(1-CH2COOH) = N[C@@H](Cc1cn(CC(=O)O)c2ccccc12)C(=O)O; X1 = O=C([C@H](Cc1cccc(C(=O)[*:3])c1)N[*:1])[*:2]; Nle(6-morpholino) = N[C@@H](CCCCN1CCOCC1)C(=O)O; Phe(3-COOH) = N[C@@H](Cc1cccc(C(=O)O)c1)C(=O)O; Trp(7-aza) = N[C@@H](Cc1c[nH]c2ncccc12)C(=O)O; NH(CH2CH2O)8Me = COCCOCCOCCOCCOCCOCCOCCOCCN*; NMePhe(3-Cl) = CN[C@@H](Cc1cccc(Cl)c1)C(=O)O; Piperazinyl(4-CH2COOH) = O=C(O)CN1CCN(*)CC1; 3Pal(6-NH2) = Nc1ccc(C[C@H](N)C(=O)O)cn1; Lys(N3) = [N-]=[N+]=NCCCC[C@H](N)C(=O)O; X2 = COCCOCCOCCOCCOCCOCCOCCOCCNC(=O)C*; NMeY = CN[C@@H](Cc1ccc(O)cc1)C(=O)O; NH(CH2CH2O)4Me = COCCOCCOCCOCCN*; 3Pal = N[C@@H](Cc1cccnc1)C(=O)O; 4Pal = N[C@@H](Cc1ccncc1)C(=O)O; PEG4 = NCCOCCOCCOCCOCCC(=O)O; Carboxymethyl = O=C(O)C*; CO = O=C([*:1])[*:2]

Target: T1, human transferrin receptor (hTfR) (Homo sapiens, UniProt P02786)
T1 construct: made in house
Assay: Evaluation of molecular interaction between transferrin receptor (hTfR) and peptide using surface plasmon resonance (SPR)
Format: binding
Summary of the method: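 Using a Ni-NTA surface bearing covalently coupled hTfR dimer, peptides were tested at five concentrations from 5 to 100 nM. Running buffer was 10 mM HEPES pH 8.0, 150 mM NaCl, 0.05% Tween 20, 0.1% BSA, 1.0% DMSO; single-cycle sensorgrams were least-squares fitted for KD.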

[1] = surface plasmon resonance, binding to hTfR, KD class symbol, read-out: SPR (KD value)
[2] = peptide with linker, surface plasmon resonance, read-out: SPR (KD class for binding to hTfR)

T1 sequence (P02786 89-760 limits assumed): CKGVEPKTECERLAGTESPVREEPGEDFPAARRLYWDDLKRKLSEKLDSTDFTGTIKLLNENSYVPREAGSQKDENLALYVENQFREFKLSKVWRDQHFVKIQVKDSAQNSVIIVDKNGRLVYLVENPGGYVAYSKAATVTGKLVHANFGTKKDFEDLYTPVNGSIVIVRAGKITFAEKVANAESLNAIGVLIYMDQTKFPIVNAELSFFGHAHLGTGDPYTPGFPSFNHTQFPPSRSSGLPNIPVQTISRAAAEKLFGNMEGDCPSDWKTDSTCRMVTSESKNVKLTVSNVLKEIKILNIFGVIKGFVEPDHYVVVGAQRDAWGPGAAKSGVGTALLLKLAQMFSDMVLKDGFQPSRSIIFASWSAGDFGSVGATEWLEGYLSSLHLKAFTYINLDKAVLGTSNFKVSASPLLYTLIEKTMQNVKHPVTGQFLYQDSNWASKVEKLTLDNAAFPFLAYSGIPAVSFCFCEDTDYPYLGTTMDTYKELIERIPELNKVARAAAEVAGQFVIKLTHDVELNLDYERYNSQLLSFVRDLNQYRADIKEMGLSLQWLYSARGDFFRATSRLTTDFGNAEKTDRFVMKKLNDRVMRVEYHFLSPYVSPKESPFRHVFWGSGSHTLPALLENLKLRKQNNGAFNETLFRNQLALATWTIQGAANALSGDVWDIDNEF

SMILES | Kd [1] [nM] | also measured
CC[C@H](C)[C@@H]1NC(=O)[C@H](Cc2ccc(OCC(=O)O)cc2)NC(=O)[C@H](Cc2ccc(O)cc2)NC(=O)[C@H](CC(N)=O)NC(=O)[C@H](Cc2c[nH]c3ncccc23)NC(=O)[C@H](C(C)C)NC(=O)[C@H](Cc2cccc(Cl)c2)N(C)C(=O)[C@H](C(C)C)NC(=O)[C@H](C)NC(=O)CSC[C@@H](C(=O)NCCOCCOCCOCCOCCC(N)=O)NC(=O)[C@H](Cc2ccc(O)cc2)N(C)C(=O)[C@H](Cc2cccc(C(=O)O)c2)NC(=O)[C@H](CCCCN2CCOCC2)NC(=O)[C@H](CCC(N)=O)NC(=O)[C@H]([C@@H](C)CC)NC1=O [compound 140] ({CH2CO}-AV[NMePhe(3-Cl)]V[Trp(7-aza)]NYY(Carboxymethyl)IIQ[Nle(6-morpholino)][Phe(3-COOH)][NMeY]C[PEG4]-NH2; thioether N-15) | 1 to 100 | –
CC[C@H](C)[C@@H]1NC(=O)[C@H](Cc2ccc(OC)cc2)NC(=O)[C@H](Cc2ccc(O)cc2)NC(=O)[C@H](CC(N)=O)NC(=O)[C@H](Cc2c[nH]c3ccc(Cl)cc23)NC(=O)[C@H](C(C)C)NC(=O)[C@H](Cc2ccc(F)cc2)N(C)C(=O)[C@H](C(C)C)NC(=O)[C@H](C)NC(=O)CSC[C@@H](C(=O)NCCOCCOCCOCCOCCC(N)=O)NC(=O)[C@H](Cc2ccc(O)cc2)N(C)C(=O)[C@H](Cc2ccccc2)NC(=O)[C@@H](CCCNC(=N)N)NC(=O)[C@H](CCCNC(=N)N)N(C)C(=O)[C@H]([C@@H](C)CC)NC1=O [compound 27] | 1 to 100 | –
CC[C@H](C)[C@@H]1NC(=O)[C@H](Cc2ccc(OCC(=O)O)cc2)NC(=O)[C@H](Cc2ccc(O)cc2)NC(=O)[C@H](CC(N)=O)NC(=O)[C@H](Cc2cn(CC(=O)O)c3ccccc23)NC(=O)[C@H](C(C)C)NC(=O)[C@H](Cc2cccc(Cl)c2)N(C)C(=O)[C@H](C(C)C)NC(=O)[C@H](C)NC(=O)CSC[C@@H](C(=O)NCCOCCOCCOCCOCCC(N)=O)NC(=O)[C@H](Cc2ccc(O)cc2)N(C)C(=O)[C@H](Cc2ccncc2)NC(=O)[C@H](CCCCN2CCOCC2)NC(=O)[C@H](CCC(=O)NCCOCCOCCOCCOCCOCCOCCOCCOC)NC(=O)[C@H]([C@@H](C)CC)NC1=O [compound 219] | – | Kd [2]: 1 to 100 nM
CC[C@H](C)[C@@H]1NC(=O)[C@H](Cc2cccnc2)NC(=O)[C@H](Cc2ccc(N)nc2)NC(=O)[C@H](CC(N)=O)NC(=O)[C@H](Cc2cn(CC(=O)O)c3ccccc23)NC(=O)[C@H](C(C)C)NC(=O)[C@H](Cc2cccc(Cl)c2)N(C)C(=O)[C@H](C(C)C)NC(=O)[C@H](C)NC(=O)CSC[C@@H](C(=O)NCCOCCOCCOCCOCCC(N)=O)NC(=O)[C@H](Cc2ccc(O)cc2)N(C)C(=O)[C@H](Cc2ccncc2)NC(=O)[C@H](CCC(=O)NCCOCCOCCOCCOCCOCCOCCOCCOC)NC(=O)[C@H](CCCNC(=N)N)NC(=O)[C@H]([C@@H](C)CC)NC1=O [compound 86] ({CH2CO}-AV[NMePhe(3-Cl)]V[Trp(1-CH2COOH)]N[3Pal(6-NH2)][3Pal]IIRE(NH(CH2CH2O)8Me)[4Pal][NMeY]C[PEG4]-NH2; thioether N-15) | 100 to 1000 | –
CC[C@H](C)[C@@H]1NC(=O)[C@H](Cc2ccc(OCC(=O)O)cc2)NC(=O)[C@H](Cc2ccc(O)cc2)NC(=O)[C@H](CC(N)=O)NC(=O)[C@H](Cc2cn(CC(=O)O)c3ccccc23)NC(=O)[C@H](C(C)C)NC(=O)[C@H](Cc2cccc(Cl)c2)N(C)C(=O)[C@H](C(C)C)NC(=O)[C@H](C)NC(=O)CSC[C@@H](C(=O)NCCOCCOCCOCCOCCC(N)=O)NC(=O)[C@H](Cc2ccc(O)cc2)N(C)C(=O)[C@H](Cc2ccccc2)NC(=O)[C@H](CCCCNC(=O)N2CCN(CC(=O)O)CC2)NC(=O)[C@H](CCC(=O)NCCOCCOCCOCCOC)NC(=O)[C@H]([C@@H](C)CC)NC1=O [compound 115] ({CH2CO}-AV[NMePhe(3-Cl)]V[Trp(1-CH2COOH)]NYY(Carboxymethyl)IIE(NH(CH2CH2O)4Me)K([CO-Piperazinyl(4-CH2COOH)])F[NMeY]C[PEG4]-NH2; thioether N-15) | 1 to 100 | –
CC[C@H](C)[C@@H]1NC(=O)[C@H](Cc2ccc(OCC(=O)NCCOCCOCCOCCOCCOCCOCCOCCOC)cc2)NC(=O)[C@H](Cc2ccc(O)cc2)NC(=O)[C@H](CC(N)=O)NC(=O)[C@H](Cc2c[nH]c3ncccc23)NC(=O)[C@H](C(C)C)NC(=O)[C@H](Cc2cccc(Cl)c2)N(C)C(=O)[C@H](C(C)C)NC(=O)[C@H](C)NC(=O)CSC[C@@H](C(=O)NCCOCCOCCOCCOCCC(N)=O)NC(=O)[C@H](Cc2ccc(O)cc2)N(C)C(=O)[C@H](Cc2cccc(C(=O)NCCOCCOCCOCCOCCOCCOCCOCCOC)c2)NC(=O)[C@H](CCC(N)=O)NC(=O)[C@H](CCC(N)=O)NC(=O)[C@H]([C@@H](C)CC)NC1=O [compound 229] ({CH2CO}-AV[NMePhe(3-Cl)]V[Trp(7-aza)]NYY(X2)IIQQ[X1](NH(CH2CH2O)8Me)[NMeY]C[PEG4]-NH2; thioether N-15) | – | Kd [2]: 1 to 100 nM
CC[C@H](C)[C@@H]1NC(=O)[C@H](Cc2cccnc2)NC(=O)[C@H](Cc2ccc(O)cc2)NC(=O)[C@H](CC(N)=O)NC(=O)[C@H](Cc2cn(CC(=O)O)c3ccccc23)NC(=O)[C@H](C(C)C)NC(=O)[C@H](Cc2cccc(Cl)c2)N(C)C(=O)[C@H](C(C)C)NC(=O)[C@H](C)NC(=O)CSC[C@@H](C(=O)NCC(=O)N[C@@H](CCCCN=[N+]=[N-])C(N)=O)NC(=O)[C@H](Cc2ccc(O)cc2)N(C)C(=O)[C@H](Cc2ccncc2)NC(=O)[C@H](CCCNC(=N)N)NC(=O)[C@H](CCCNC(=N)N)NC(=O)[C@H]([C@@H](C)CC)NC1=O [894_3185] ({CH2CO}-AV[NMePhe(3-Cl)]V[Trp(1-CH2COOH)]NY[3Pal]IIRR[4Pal][NMeY]CG[Lys(N3)]-NH2; thioether N-15) | – | Kd (KD class for binding to hTfR by SPR, peptide with the linker shown in the same line, 'low signal indicates no activity', read-out: SPR): 1 to 100 nM
CC[C@H](C)[C@@H]1NC(=O)[C@H](Cc2ccc(OCC(=O)O)cc2)NC(=O)[C@H](Cc2ccc(O)cc2)NC(=O)[C@H](CC(N)=O)NC(=O)[C@H](Cc2c[nH]c3ncccc23)NC(=O)[C@H](C(C)C)NC(=O)[C@H](Cc2cccc(Cl)c2)N(C)C(=O)[C@H](C(C)C)NC(=O)[C@H](C)NC(=O)CSC[C@@H](C(=O)NCCOCCOCCOCCOCCC(N)=O)NC(=O)[C@H](Cc2ccc(O)cc2)N(C)C(=O)[C@H](Cc2cccc(C(=O)O)c2)NC(=O)[C@H](CCCNC(=N)N)NC(=O)[C@H](CCC(N)=O)NC(=O)[C@H]([C@@H](C)CC)NC1=O [compound 225] | – | Kd [2]: < 1 nM
CC[C@H](C)[C@@H]1NC(=O)[C@H](Cc2ccc(O)cc2)NC(=O)[C@H](Cc2ccc(O)cc2)NC(=O)[C@H](CC(N)=O)NC(=O)[C@H](Cc2c[nH]c3ccc(Cl)cc23)NC(=O)[C@H](C(C)C)NC(=O)[C@H](Cc2ccccc2)N(C)C(=O)[C@H](C(C)C)NC(=O)[C@H](C)NC(=O)CSC[C@@H](C(=O)NCCOCCOCCOCCOCCC(N)=O)NC(=O)[C@H](Cc2ccc(O)cc2)N(C)C(=O)[C@H](Cc2ccccc2)NC(=O)[C@@H](CCCNC(=N)N)NC(=O)[C@H](CCCNC(=N)N)NC(=O)[C@H]([C@@H](C)CC)NC1=O [compound 20] | 1 to 100 | –
CC[C@H](C)[C@@H]1NC(=O)[C@H](Cc2cccnc2)NC(=O)[C@H](Cc2ccc(O)cc2)NC(=O)[C@H](CC(N)=O)NC(=O)[C@H](Cc2c[nH]c3ccccc23)NC(=O)[C@H](C(C)C)NC(=O)[C@H](Cc2cccc(Cl)c2)N(C)C(=O)[C@H](C(C)C)NC(=O)[C@H](C)NC(=O)CSC[C@@H](C(=O)NCCOCCOCCOCCOCCC(N)=O)NC(=O)[C@H](Cc2ccc(O)cc2)N(C)C(=O)[C@H](Cc2ccccc2)NC(=O)[C@H](CCCNC(=N)N)NC(=O)[C@H](CCCNC(=N)N)NC(=O)[C@H]([C@@H](C)CC)NC1=O [compound 60] ({CH2CO}-AV[NMePhe(3-Cl)]VWNY[3Pal]IIRRF[NMeY]C[PEG4]-NH2; thioether N-15) | 1 to 100 | –
CC[C@H](C)[C@@H]1NC(=O)[C@H](Cc2ccc(OCC(=O)O)cc2)NC(=O)[C@H](Cc2ccc(O)cc2)NC(=O)[C@H](CC(N)=O)NC(=O)[C@H](Cc2c[nH]c3ccccc23)NC(=O)[C@H](C(C)C)NC(=O)[C@H](Cc2cccc(Cl)c2)N(C)C(=O)[C@H](C(C)C)NC(=O)[C@H](C)NC(=O)CSC[C@@H](C(=O)NCCOCCOCCOCCOCCC(N)=O)NC(=O)[C@H](Cc2ccc(O)cc2)N(C)C(=O)[C@H](Cc2ccccc2)NC(=O)[C@H](CCCCN)NC(=O)[C@H](CCC(=O)NCCOCCOCCOCCOC)NC(=O)[C@H]([C@@H](C)CC)NC1=O [compound 121] ({CH2CO}-AV[NMePhe(3-Cl)]VWNYY(Carboxymethyl)IIE(NH(CH2CH2O)4Me)KF[NMeY]C[PEG4]-NH2; thioether N-15) | 1 to 100 | –
CC[C@H](C)[C@@H]1NC(=O)[C@H](Cc2cccnc2)NC(=O)[C@H](Cc2ccc(N)nc2)NC(=O)[C@H](CC(N)=O)NC(=O)[C@H](Cc2cn(CC(=O)O)c3ccccc23)NC(=O)[C@H](C(C)C)NC(=O)[C@H](Cc2cccc(Cl)c2)N(C)C(=O)[C@H](C(C)C)NC(=O)[C@H](C)NC(=O)CSC[C@@H](C(=O)NCCOCCOCCOCCOCCC(N)=O)NC(=O)[C@H](Cc2ccc(O)cc2)N(C)C(=O)[C@H](Cc2ccncc2)NC(=O)[C@H](CCCNC(=N)N)NC(=O)[C@H](CCCNC(=N)N)NC(=O)[C@H]([C@@H](C)CC)NC1=O [compound 49] ({CH2CO}-AV[NMePhe(3-Cl)]V[Trp(1-CH2COOH)]N[3Pal(6-NH2)][3Pal]IIRR[4Pal][NMeY]C[PEG4]-NH2; thioether N-15) | 1 to 100 | –
CC[C@H](C)[C@@H]1NC(=O)[C@H](Cc2cccnc2)NC(=O)[C@H](Cc2ccc(O)cc2)NC(=O)[C@H](CC(N)=O)NC(=O)[C@H](Cc2cn(CC(=O)O)c3ccccc23)NC(=O)[C@H](C(C)C)NC(=O)[C@H](Cc2cccc(Cl)c2)N(C)C(=O)[C@H](C(C)C)NC(=O)[C@H](C)NC(=O)CSC[C@@H](C(=O)NCCOCCOCCOCCOCCC(N)=O)NC(=O)[C@H](Cc2ccc(O)cc2)N(C)C(=O)[C@H](Cc2cccc(C(=O)O)c2)NC(=O)[C@H](CCC(=O)NCCOCCOCCOCCOCCOCCOCCOCCOC)NC(=O)[C@H](CCCNC(=N)N)NC(=O)[C@H]([C@@H](C)CC)NC1=O [compound 84] ({CH2CO}-AV[NMePhe(3-Cl)]V[Trp(1-CH2COOH)]NY[3Pal]IIRE(NH(CH2CH2O)8Me)[Phe(3-COOH)][NMeY]C[PEG4]-NH2; thioether N-15) | 1 to 100 | –
